Measured values: patent US12268682B2, “Anticancer drug FL118 formulation for treatment of human cancer” (CANGET BIOTEKPHARMA, LLC, priority 2019, dated 2025)

How the values were obtained:
[1] = system: cancer stem cells (CSCs); settings: cited from earlier work
[2] = system: MM1.s cells
[3] = system: Survivin; assay: Intracellular staining of Survivin in patient MM cells; assay type: cell-based, human; settings: FL118-susceptible RR patients, 16 h
Procedure: Intracellular staining Survivin and Mcl-1: Mcl-1 and survivin expression levels in MM cells of BMMNC patient samples were determined by intracellular staining followed by flow cytometry. Untreated or FL118 treated (16 h) patient samples were washed twice with cold PBS. Cells were blocked with human immunoglobulin and stained for CD38 (BD biosciences), CD138 (Bio-Connect) and live/dead cell marker. In addition, LUC- and Green fluorescence protein (GFP)-transduced UM9 MM-cells were incubated alone or a monolayer of 1×10^6 BMMSCs in a 100 mm dish for 24 or 48 hours. Non-adherent cells were harvested by taking culture medium from plates and washing plates with PBS by gentle pipetting. Adherent cells were harvested using Stem-Pro Accutase. Both adherent and non-adherent cells were blocked with human immunoglobulin and stained for CD105 (Synobiotechnology) and live/dead marker. The stained patient cells and UM9 cells were then fixated in 4% formaldehyde for 15 minutes at room temperature. After fixation, the cells were placed in ice cold 90% methanol for 30 minutes on ice for permeabilization and subsequently stored at −20° C. […] Expression levels were analyzed in viable CD38^+ CD138^+ patient MM cells and GFP^+ CD105^− UM9-cells using flow cytometry.

[4] = X-ray powder diffractometer (XRPD) crystal versus amorphous status; assay type: physicochemical
Procedure: Crystal versus amorphous status analyses of FL118 versus the formulated FL118 product using X-ray powder diffractometer: The crystal or amorphous status of each formulated FL118-a type of CD complex powder is determined using X-ray powder diffractometer (XRPD). Specifically, about 5 mg samples of each formulated FL118-a type of CD complex powder are spread onto the center of Si-substrate (samples area will be 1 cm in diameter) for XRPD testing. Laboratory XRPD patterns for samples will be collected at 25° C. The diffraction data will be collected over the angular range of 2θ=3°-40° with a step size of 2θ=0.02° and accounting time of 0.12 s/step.

[5] = system: BMMSCs; assay: BMMSC viability (Cell TiterGlo)
Procedure: A pool (n=12) of newly diagnosed-MM patient derived BMMSCs were treated with serial concentrations of FL118. Cell viability was determined by Cell TiterGlo after indicated period of time. Error bars represent the SD of three independent experiments.
Bone Marrow derived Mesenchymal stromal cells (BMMSCs): Diagnostic BM aspirations from MM patients were used to isolate BMMNCs and culture adherent BMMSCs as described elsewhere (Prins H J, et al. Tissue Eng Part A. 2009, 15:3741-3751). To minimalize inter-individual variation, all experiments were performed with cells from a pool of BMMSCs derived from twelve MM patients at passage 3.

[6] = system: MM cell lines; assay: BLI-based cytotoxicity assay using LUC-transduced MM cell lines; design: species or system human
Procedure: Cell lines and culture: Luciferase (LUC)-transduced MM cell lines RPMI 8226, JJN3, UM9, MM1.s, U266, L363, and OPM-2 were cultured in RPMI 1640 (Life Technologies), supplemented with 10% heat-inactivated HyClone FetalClone I serum (GE Healthcare Life Sciences) and (penicillin, 10.000 U/mL; streptomycin, […]; InVitrogen,). HS-5 was cultured in DMEM (Life Technologies), supplemented with heat-inactivated FBS (Sigma) and antibiotics.

[7] = system: control genes (p21cip1/waf1, dihydrofolate reductase, human thrombin receptor, thymidine kinase); settings: cited from earlier work
[8] = system: UM9 cell line; assay: BLI-based cytotoxicity assay with CAR T-cells or CTL 3AB11 on UM9; assay type: cell-based, human
Source text: CD138-, BCMA- and CD38-specific CAR T-cells: All CAR T-cells with different specificities were generated with co-stimulatory domains 4-1BB, CD28, or CD28 supplemented with a separate 4-1BB ligand (28zBBL), with the technology as described previously (Kim J H, et al. PLoS One. 2011, 6:e18556; Drent E, et al. Clin Cancer Res. 2019, 25:4014-4025). CD138 CAR T-cells (nBT) were produced using single chain variable fragment (scFv) sequences of the published nBT062 monoclonal antibody (Ikeda H, et al. Clin Cancer Res. 2009, 15:4028-4037). BCMA CAR T-cells were produced using published scFv sequences derived from C11D5.3 monoclonal antibody (US2012/0082661 A1 (Shancer Z, et al. Antib Ther. 2018, 1:19-25) or from BCMA02 CAR (product name bb2121, WO 2016/094304 A2) (Raje N, et al. N Engl J Med. 2019, 380:1726-1737; Friedman K M, et al. Hum Gene Ther. 2018, 29:585-601). The generation and functional analysis of CD38 CAR T-cells with low (B1) or high (028) CD38-affinities has been described previously (Drent E, et al. Clin Cancer Res. 2019, 25:4014-4025; Drent E, et al. Mol Ther. 2017, 25:1946-1958). More detailed information on all CAR construct are listed in Table 1. CAR T-cells were tested 10-14 days after CAR transduction or frozen until testing. After thawing, CAR T-cells were cultured for 16 hours in 60 U/mL recombinant human IL-2 (R&D Systems)-containing culture medium (RPMI 1640 supplemented with heat-inactivated FBS (Sigma) and antibiotics), before using in experiments. Flow cytometry analysis, to determine the transduction efficiency and phenotypic profile of each CAR T-cell, was performed as previously described (Drent E, et al. Clin Cancer Res. 2019, 25:4014 4025; Drent E, et al. Mol Ther. 2017, 25:1946-1958) and illustrated in FIG. 10.
3AB11 was expanded using a feeder cell-cytokine mixture and cryopreserved until further use as described previously (Spaapen R, et al. Clin Cancer Res. 2007, 13:4009-4015).

[9] = system: survivin, Mcl-1, XIAP and cIAP2; settings: cited from earlier work
[10] = cited from earlier work

In the case of `CC[C@@]1(O)C(=O)OCc2c1cc1n(c2=O)Cc2cc3cc4c(cc3nc2-1)OCO4` [FL118], the “expression of CSC markers (ABCG2, ALDH1A1, Oct4)” value [1] is given as “downregulates”, the “invasive ability of CSCs” value [1] is given as “effectively decreases” and the “combination with anti-DR5 antibody Drozitumab, cell lysis” value ([2]; 24 hours, PBMC effectors) is given as “great synergistic activity”. The “microenvironment-induced immune resistance, combination with Drozitumab” value ([2]; presence of BMMSCs) was “reversed”, the “levels of Survivin expression” value [3] was “significantly reduced” and the “crystal versus amorphous status” value [4] was “crystal”. The “toxicity against BMMSCs” value ([5]; serial concentrations of FL118) was “minimal toxicity”, the “toxic effects on BMMSCs” value ([5]; up to a dose of 100 nM) was “no toxic effects” and the “lysis of MM cell lines in the presence of BMMSCs” value ([6]; 5 of 6 MM cell lines) was “not reduced, or even increased”. The “stroma-cell induced drug resistance against bortezomib and doxorubicin” value ([6]; MM1.s and UM9 co-cultured with BMMSCs or HS-5, 48 hours) was “effectively abrogated”, the “combination activity with melphalan or bortezomib” value ([6]; MM cell lines, 48 hours) was “at least additive activity” and the “lysis of MM cell line in the presence of BMMSCs” value ([6]; cell line UM9) was “minimal reduction”. The “inhibitory effects on control genes” value [7] was “no inhibitory effects”, the “BMMSC protective effect against CTL 3AB11 lysis” value ([8]; 24 hours) was “completely abrogated” and the “combination effect with CTL 3AB11” value ([8]; Chou-Talalay) was “synergistic fashion”. For the same compound, the “combination index (CI) values, FL118 and CAR T-cells” value ([8]; Chou-Talalay, especially in the presence of BMMSCs) was “below 1”, the “BMMSC-mediated protection against CAR T-cells” value ([8]; combined with CAR T-cells, even at doses as low as 3 nM) was “effectively modulated” and the “lysis of MM-cells by FL118 alone” value ([8]; regardless of the presence of BMMSCs, 24 hours) was “dose-dependent lysis”. For the same compound, the “inhibition of expression of survivin, Mcl-1, XIAP and cIAP2” value [9] was “selectively inhibits”, the oral availability ([10]; in vivo, po) was “orally available” and the “pharmacokinetics (PK) profile” value ([10]; intravenous administration, accumulated in tumor, rapidly cleared in blood stream) was “favorable”.
